Structures can show the parent of a compound that is named as a salt. Where two headings read alike, the source gives them in different places.
Legend:
[1] = biological target: T1, eeAChE (AChE from Electrophorus electricus) (Electrophorus electricus, UniProt O42275); assay: biochemical; conditions: [S] = 121 µM; mean ± SD
Protocol: (§1) The inhibitory activity of 12a–12d against AChE and BuChE was carried out following minor modifications of the Ellman assay,[30] as reported previously[31] using Thermo Scientific^TM Varioskan^TM LUX microplate reader and Greiner F-bottom 96-well plates.

[2] = biological target: T2, eqBuChE (BuChE from equine serum) (Equus caballus, UniProt P81908); assay: biochemical; assay type: biochemical; conditions: for BuChE selectivity: IC50(AChE)/IC50(BuChE); for IC50: [S] = 112 µM, mean ± SD
T2 construct: eqBuChE (BuChE from equine serum); from tissue; host or cells: equine serum
T2 sequence (P81908 whole entry): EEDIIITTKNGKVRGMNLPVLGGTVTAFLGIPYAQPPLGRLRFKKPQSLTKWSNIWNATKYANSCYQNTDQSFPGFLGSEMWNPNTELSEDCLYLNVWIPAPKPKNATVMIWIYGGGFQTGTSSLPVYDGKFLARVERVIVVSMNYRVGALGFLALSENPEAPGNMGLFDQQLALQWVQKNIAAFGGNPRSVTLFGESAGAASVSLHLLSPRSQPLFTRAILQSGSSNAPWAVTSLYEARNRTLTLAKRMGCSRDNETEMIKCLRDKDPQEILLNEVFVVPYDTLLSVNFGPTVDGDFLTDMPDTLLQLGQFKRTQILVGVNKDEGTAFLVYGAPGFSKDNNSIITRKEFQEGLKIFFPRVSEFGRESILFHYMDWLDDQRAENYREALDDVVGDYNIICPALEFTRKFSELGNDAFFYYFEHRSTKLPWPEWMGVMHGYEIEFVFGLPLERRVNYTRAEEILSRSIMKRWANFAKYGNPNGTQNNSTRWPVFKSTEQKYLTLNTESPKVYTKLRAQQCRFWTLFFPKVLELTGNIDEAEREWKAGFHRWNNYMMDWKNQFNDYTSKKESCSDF
Protocol: as §1

[3] = biological target: BuChE; set-up: method as in PMID 33228403; conditions: mixed inhibition of BuChE; cited from earlier work
[4] = biological target: T1, eeAChE (AChE from Electrophorus electricus); conditions: [S] = 121 µM; cited from earlier work
[5] = biological target: AChE; conditions: mixed inhibition of AChE; cited from earlier work

T1 sequence (O42275 24-633): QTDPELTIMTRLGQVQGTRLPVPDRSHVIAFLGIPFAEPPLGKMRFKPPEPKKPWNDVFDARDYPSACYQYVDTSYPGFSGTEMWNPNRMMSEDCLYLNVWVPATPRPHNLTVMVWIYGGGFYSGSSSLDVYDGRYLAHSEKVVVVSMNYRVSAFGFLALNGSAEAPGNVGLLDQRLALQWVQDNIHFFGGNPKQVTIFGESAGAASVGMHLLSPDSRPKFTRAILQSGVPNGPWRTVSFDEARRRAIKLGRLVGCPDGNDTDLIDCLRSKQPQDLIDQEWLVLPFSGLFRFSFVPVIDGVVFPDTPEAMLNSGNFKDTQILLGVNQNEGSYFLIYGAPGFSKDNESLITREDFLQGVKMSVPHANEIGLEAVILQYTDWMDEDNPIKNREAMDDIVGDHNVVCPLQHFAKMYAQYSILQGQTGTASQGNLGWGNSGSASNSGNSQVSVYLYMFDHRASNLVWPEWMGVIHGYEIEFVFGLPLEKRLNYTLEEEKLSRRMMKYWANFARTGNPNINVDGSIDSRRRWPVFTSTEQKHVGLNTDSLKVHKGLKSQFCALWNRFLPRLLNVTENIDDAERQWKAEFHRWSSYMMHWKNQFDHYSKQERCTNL

| Compound | IC50 [1] [µM] | BuChE selectivity [2] | IC50 [2] [µM] | other results |
| --- | --- | --- | --- | --- |
| OC[C@@H]1[C@@H](O)[C@H](O)[C@@H](O)CN1CCCn1cc(Cn2nnc3ccccc32)nn1 [Compound 12a] | > 500 | >10 | 50 ± 3 | – |
| COc1ccc(CCOCCCCCCN2C[C@H](O)[C@@H](O)[C@H](O)[C@H]2CO)cc1OC [Compound 10] | – | – | – | Ki [3]: 1.4 µM; αKi [3]: 4.5 µM |
| OC[C@@H]1[C@@H](O)[C@H](O)[C@@H](O)CN1CCCCCCn1cc(Cn2nnc3ccccc32)nn1 [Compound 12b] | 65 ± 2 | 9.7 | 6.7 ± 0.7 | fold more potent BuChE inhibitor than 1-DNJ [2]: 1.5 fold; uncompetitive inhibition constant αKi ([2]; BuChE, Cornish-Bowden plots): 12 ± 1 µM; type of inhibition ([2]; BuChE, Cornish-Bowden plots (1/V vs. [I] and [S]/V vs. [I])): mixed inhibitor; Ki ([2]; BuChE, Cornish-Bowden plots, read-out: competitive inhibition constant Ki): 4.9 ± 0.4 µM |
| OC[C@@H]1[C@@H](O)[C@H](O)[C@@H](O)CN1CCCCCCCCCCn1cc(Cn2nnc3ccccc32)nn1 [Compound 12d, N-(1-(2-((1H-benzo[1,2,3]triazol-1-yl)methyl)-1H-1,2,3-triazol-1-yl)decyl)-1-deoxynojirimycin hydrochloride] | > 500 | – | 17 ± 0.7 | – |
| OC[C@H]1NC[C@H](O)[C@@H](O)[C@@H]1O [Compound 4, 1-deoxynojirimycin, reference compound] | – | >10 | – | IC50 [4]: > 100 µM |
| OC[C@@H]1[C@@H](O)[C@H](O)[C@@H](O)CN1Cc1cn(CCCCCCNc2c3c(nc4ccccc24)CCCC3)nn1 [Compound 9] | – | – | – | Ki [5]: 0.0071 µM; αKi [5]: 17.4 nM |
| OC[C@@H]1[C@@H](O)[C@H](O)[C@@H](O)CN1CCCCCCCCn1cc(Cn2nnc3ccccc32)nn1 [Compound 12c, N-(1-(2-((1H-benzo[1,2,3]triazol-1-yl)methyl)-1H-1,2,3-triazol-1-yl)octyl)-1-deoxynojirimycin hydrochloride] | > 500 | >19 | 26 ± 0.7 | – |
| OC[C@@H]1[C@@H](O)[C@H](O)[C@@H](O)CN1CCCCCNC(=[Se])Nc1ccc(Br)cc1 [Compound 8] | – | – | – | Ki [5]: 5.8 µM |

— publication PMC9467581 (Journal of Enzyme Inhibition and Medicinal Chemistry, 2022)
